# Laboratory results published in patent publication US9993463B2, “Use of maleimide derivatives for preventing and treating cancer” (CENTOGENE AG, priority 2012, dated 2018).
# Experiments:
# [1] = test system: purified bovine brain tubulin; experiment: Tubulin polymerisation turbidity assay; type: biochemical; details: 1 μM, 340 nm, 37° C.; for shape of OD curve over time / effect on tubulin polymerization: 60 min, FIG. 5C, untreated control sigmoid
# Description: Purified bovine brain tubulin was used to measure tubulin-polymerisation by determining turbidity in tubulin samples incubated with compound of example 6 (PDA-66), paclitaxel or nocodazole (all 1 μM) and 0.6% DMSO in water as negative control. Optical density (OD) was measured after initiation of tubulin assembly at a wavelength of 340 nm continuously for 60 min in 1 min intervals at a temperature of 37° C. in a plate reader (Tecan, Mainz, Germany).
# [2] = test system: human neuroblastoma cells (SH5Y5); experiment: Cell proliferation assay (CASY, current exclusion), SH5Y5; type: cell-based; details: SH5Y5, 3 μM, 72 h, FIG. 2
# Description: (§1) Human neural progenitor cells ReNcell VM (Millipore, Schwalbach, Germany) were cultured on laminin-coated culture-vessels. Culture medium consisted of DMEM/F12 supplemented with B27 media supplement, GlutaMax™, gentamycin and heparin sodium salt and growth factors EGF (epidermal growth factor) and bFGF (basic fibroblast growth factor). The human neuroblastoma cell line SH-SY5Y was obtained from the German Resource Centre for Biological Material DSMZ (Braunschweig, Germany). Cells were cultivated in DMEM, supplemented with 10% FBS, 1% Penicillin-Streptomycin, 4 mM L-Glutamine. The human T cell leukemia cell line Jurkat was obtained from the German Resource Centre for Biological Material DSMZ (Braunschweig, Germany). Cells were cultivated in RPMI 1640 medium, supplemented with 10% FBS, 1% Penicillin-Streptomycin. The murine melanoma cell line B16F10 was obtained from the American Type Culture Collection (ATCC, Manassas, USA), Cells were cultivated in DMEM/GM medium supplemented with 10% FBS, 1% Penicillin-Streptomycin. […]
# (§2) Cell proliferation and vitality were measured with a CASY Model TT (Roche, Mannheim, Germany) by electrical current exclusion method. […]
# (§3) 5.2 Furthermore cancer cells were treated with compound of example 2.6 (PDA-66) with a concentration of 3 μM for 72 h and cell number was evaluated using the current exclusion method as described above.
# human immortalized cells = experiment: Mitotic arrest in G2/M phase of cell cycle; type: cell-based; details: after 16 h (highest amount), control 17.4±2.3%
# Excerpt: As a measure the increase in cells with double DNA content was used, where at all points in time the amount of treated cells was higher in comparison to untreated cells.
# [3] = test system: human T cell leukemia (Jurkat) cells; experiment: Cell proliferation assay (CASY, current exclusion), Jurkat; type: cell-based; details: 72 h
# Description: Human neural progenitor cells ReNcell VM (Millipore, Schwalbach, Germany) were cultured on laminin-coated culture-vessels. Culture medium consisted of DMEM/F12 supplemented with B27 media supplement, GlutaMax™, gentamycin and heparin sodium salt and growth factors EGF (epidermal growth factor) and bFGF (basic fibroblast growth factor). The human neuroblastoma cell line SH-SY5Y was obtained from the German Resource Centre for Biological Material DSMZ (Braunschweig, Germany). Cells were cultivated in DMEM, supplemented with 10% FBS, 1% Penicillin-Streptomycin, 4 mM L-Glutamine. The human T cell leukemia cell line Jurkat was obtained from the German Resource Centre for Biological Material DSMZ (Braunschweig, Germany). Cells were cultivated in RPMI 1640 medium, supplemented with 10% FBS, 1% Penicillin-Streptomycin. The murine melanoma cell line B16F10 was obtained from the American Type Culture Collection (ATCC, Manassas, USA), Cells were cultivated in DMEM/GM medium supplemented with 10% FBS, 1% Penicillin-Streptomycin. The mammary gland/breast carcinoma cell line MCF-7 was obtained from American Type Culture Collection (ATCC, Manassas, USA) and cultivated according to standard proceedings in Eagle's Minimum Essential Medium (EMEM). The colon carcinoma cell line SW480 was obtained from American Type Culture Collection (ATCC, Manassas, USA) and cultivated according to standard proceedings in Leibovitz's L15 Medium. […]
# as §2, §3
# (§4) In a further experiment further cancer cells were treated with compound of example 2.6 (PDA-66) with a concentration of 3 μM or 10 μM for 72 h and cell number was evaluated using the current exclusion method as described above.
# [4] = test system: murine melanoma cells (B16F10); experiment: Cell proliferation assay (CASY, current exclusion), B16F10; type: cell-based
# Description: (§5) Human neural progenitor cells ReNcell VM (Millipore, Schwalbach, Germany) were cultured on laminin-coated culture-vessels. Culture medium consisted of DMEM/F12 supplemented with B27 media supplement, GlutaMax™, gentamycin and heparin sodium salt and growth factors EGF (epidermal growth factor) and bFGF (basic fibroblast growth factor). The human neuroblastoma cell line SH-SY5Y was obtained from the German Resource Centre for Biological Material DSMZ (Braunschweig, Germany). Cells were cultivated in DMEM, supplemented with 10% FBS, 1% Penicillin-Streptomycin, 4 mM L-Glutamine. The human T cell leukemia cell line Jurkat was obtained from the German Resource Centre for Biological Material DSMZ (Braunschweig, Germany). Cells were cultivated in RPMI 1640 medium, supplemented with 10% FBS, 1% Penicillin-Streptomycin. The murine melanoma cell line B16F10 was obtained from the American Type Culture Collection (ATCC, Manassas, USA), Cells were cultivated in DMEM/GM medium supplemented with 10% FBS, 1% Penicillin-Streptomycin. The mammary gland/breast carcinoma cell line MCF-7 was obtained from American Type Culture Collection (ATCC, Manassas, USA) and cultivated according to standard proceedings in Eagle's Minimum Essential Medium (EMEM). The colon carcinoma cell line SW480 was obtained from American Type Culture Collection (ATCC, Manassas, USA) and cultivated according to standard proceedings in Leibovitz's L15 Medium. The lung carcinoma cell line A549 was obtained from American Type Culture Collection (ATCC, Manassas, USA) and cultivated according to standard proceedings in F-12K Medium (Kaighn's Modification of Ham's F-12 Medium). The liver carcinoma cell line Hep G2 was obtained from American Type Culture Collection (ATCC, Manassas, USA) and cultivated according to standard proceedings in Eagle's Minimum Essential Medium (EMEM).
# (§6) Cell proliferation and vitality were measured with a CASY Model TT (Roche, Mannheim, Germany) by electrical current exclusion method. Cells were seeded in defined numbers into 48-well-plates and proliferated for 24 h. Subsequently fresh medium was applied containing compounds or DMSO, in the following referred as control.
# as §3, §4
# [5] = test system: apoptotic cells (AnnexinV/PI); experiment: AnnexinV/PI apoptosis detection (FACS); type: cell-based; details: FIG. 3
# Description: To determine the amount of apoptotic and necrotic cells a FITC AnnexinV Apoptosis Detection Kit I was used. For FACS analysis, cells were trypsinised and centrifuged at 100×g at RT for 5 min and washed with PBS without Ca2^+ and Mg^2+. Annexin V and propidium iodide (PI) were added accordingly to the manufacture's instructions. After 15 min incubation at room temperature on a shaker in the dark, the measurement was done by using FACSCalibur (Becton Dickinson, San Jose, USA) in combination with Cell Quest Pro software.
# [6] = test system: human neuronal progenitor cells (hNPCs, ReNcell VM); experiment: Cell proliferation and vitality assay (CASY, current exclusion), hNPCs; type: cell-based; details: for proliferation relative to control: 72 h
# Description: as §5, §6
# 5.1 Cytotoxic effects were evaluated using human fetal cells immortalized by transfection with the oncogen v-myc (Donato et al., Differential development of neuronal physiological responsiveness in two human neural stem cell lines. BMC Neurosci.; 8, 2007), also referred to herein as human neuronal progenitor cells, hNPCs, or ReNcell VM, providing a sensitive screening system and cancer cells, namely SH5Y5, Jurkat and B16F10 cells. Cytotoxic effects were measured by comparison of cells numbers of DMSO treated cells (control) and cell numbers of cells treated with compound of above mentioned example 2.6 (PDA66). Cell proliferation and vitality was measured with a CASY Model TT (Roche, Mannheim, Germany) by electrical current exclusion method. Cells were seeded in defined numbers into 48-well-plates and proliferated for 24 h: Subsequently fresh medium was applied containing compound of example 6 (3 μM) (PDA-66) or DMSO, in the following referred as control. Cell number and cell vitality was measured after 72 h.
# [7] = test system: MCF-7 cells (mammary gland/breast carcinoma); experiment: Cell proliferation assay (CASY, current exclusion), MCF-7; type: cell-based; details: mamma carcinoma cells (printed MCF-1), 72 h
# Description: as §1, §2, §4
# bovine neuronal tubulin = experiment: VEC-DIC microscopy of tubulin polymerization; type: biochemical; details: tubulin 2 mg/ml, 37° C., 1 h, FIG. 5A, B
# Description: In order to evaluate interference with tubulin polymerisation bovine neuronal tubulin was used, diluted in BRB80 buffer (80 mM PIPES, pH 6.8; MgCl2 1 mM; EGTA 1 mM) at a concentration of 2 mg/ml. After addition of 0.5 mM GTP and 10% DMSO, initiating tubulin polymerisation, the solution samples were incubated at 37° C. in the presence of compound of example 6 (PDA-66). After 1 h the samples were analysed by using video enhanced contrast differential interference contrast (VEC-DIC) microscopy.
# [8] = test system: liver carcinoma cells (HepG2); experiment: Cell proliferation assay (CASY, current exclusion), HepG2; type: cell-based; details: 72 h
# Description: as §1, §2, §4
# [9] = test system: lung carcinoma cells (A 549); experiment: Cell proliferation assay (CASY, current exclusion), A549; type: cell-based; details: for proliferation relative to control: 72 h
# Description: as §5, with “The liver carcinoma cell line Hep G2 was obtained from American Type Culture Collection (ATCC, Manassas, USA) and cultivated according to standard proceedings in Eagle's Minimum Essential Medium (EMEM).” left out
# as §2, §4
# [10] = test system: colon carcinoma cells (SW480); experiment: Cell proliferation assay (CASY, current exclusion), SW480; type: cell-based; details: 72 h
# Description: as §1, §2, §4
structure (smiles),measurement,setting,value
"CC(=O)c1ccc(C2=C(c3c(C)[nH]c4ccccc34)C(=O)N(C)C2=O)cc1 [PDA-66, 3-(4-Acetylphenyl)-1-methyl-4-(2-methyl-1H-indol-3-yl)-1H-pyrrole-2,5-dione]",maximal OD after 60 min,[1],1.04 rel. units
same,shape of OD curve over time / effect on tubulin polymerization,[1],destabilized tubulin in a way comparable to nocodazole
same,cell numbers versus control,[2],reduced or attenuated significantly
same,amount of cells in G2/M phase of cell cycle,human immortalized cells,68.9±10.3%
same,proliferation relative to control,[3]; 3 μM,18.2±2.2%
same,cell numbers versus control,"[3]; 3 μM, FIG. 2",reduced or attenuated significantly
same,proliferation relative to control,[3]; 10 μM,31.9±5.9%
same,proliferation relative to control,"[4]; B16F10, 3 μM, 72 h",7.2±1.3%
same,cell numbers versus control,"[4]; B16F10, 3 μM, 72 h, FIG. 2",reduced or attenuated significantly
same,proliferation relative to control,"[4]; B16F10, at 10 (unit not given), 72 h",8.3±2.6%
same,IC50,"[4]; Mus musculus, B16-F10, B16F10 cells",1070 nM
same,apoptotic cells (AnnexinV+/PI− and AnnexinV+/PI+),[5],increase of apoptotic cells
same,proliferation relative to control,[6]; 3 μM,3.6±1.2%
same,number of vital cells (vitality) versus control,"[6]; 3 μM, FIG. 1 right panel",significantly lower
same,proliferation of immortalized cells (cell number) versus control,"[6]; 3 μM, up to 72 h, FIG. 1 left panel",no proliferation
same,proliferation relative to control,[6]; 10 μM,0.9±0.2%
same,effect of concentration on proliferation of immortalized cells,[6]; FIG. 6,dose-dependent effect
same,IC50,"[6]; Homo sapiens, ReNcell VM",532 nM
same,proliferation relative to control,[7]; 3 μM,43.0±2.8%
same,proliferation relative to control,[7]; 10 μM,38.3±11.8%
same,microtubule (MT) polymerization by VEC-DIC microscopy,bovine neuronal tubulin,hindered the MT-polymerization
same,proliferation relative to control,"[8]; HepG2, 3 μM",74.8±6.3%
same,proliferation relative to control,"[8]; HepG2, 10 μM",47.2±3.8%
same,proliferation relative to control,"[9]; A 549, 3 μM",57.1±9.2%
same,proliferation relative to control,"[9]; A 549, 10 μM",65.7±8.0%
same,IC50,"[9]; Homo sapiens, A549 cells",8980 nM
same,proliferation relative to control,"[10]; SW480, 3 μM",61.3±0.6%
same,proliferation relative to control,"[10]; SW480, 10 μM",56.6±6.6%
COC(=O)Nc1nc2ccc(C(=O)c3cccs3)cc2[nH]1 [nocodazole],maximal OD after 60 min,[1],1.01 rel. units
same,shape of OD curve over time / effect on tubulin polymerization,[1],nearly linear curve
CC(=O)O[C@H]1C(=O)[C@@]2(C)[C@H]([C@H](OC(=O)c3ccccc3)[C@]3(O)C[C@H](OC(=O)[C@H](O)[C@@H](NC(=O)c4ccccc4)c4ccccc4)C(C)=C1C3(C)C)[C@]1(OC(C)=O)CO[C@@H]1C[C@@H]2O [paclitaxel],maximal OD after 60 min,[1],1.18 rel. units
same,shape of OD curve over time / effect on tubulin polymerization,[1],comparable shape but with a steeper slope
